# Patent publication US8530461B2 (Boehringer Ingelheim International GmbH, priority 2011, dated 2013)
# Molecular target: T1, human ACC2 (Homo sapiens, UniProt O00763)
# T1 construct: made in house; host or cells: insect cells (baculoviral expression system)
# Experiment: ACC2 assay, spectrophotometric 384 well assay (NADH-linked, coupled lactate dehydrogenase/pyruvate kinase)
# Assay type: biochemical
# Conditions: ACC2 assay; human ACC2 construct lacking 128 N-terminal amino acids; 25° C., 340 nm, 15 minutes; read-out: IC50
# Protocol: Spectrophotometric 384 Well Assay
# Malonyl CoA formation by acetyl CoA carboxylases is stoichometrically linked to the consumption of ATP. ACC2 activity is measured in a NADH-linked kinetic method measuring ADP generated during the ACC reaction using a coupled lactate dehydrogenase/pyruvate kinase reaction.
# For biological testing, a human ACC2 construct which lacks the 128 amino acids at the N-terminus for increased solubility (nt 385-6966 in Genbank entry AJ575592) is cloned. The protein is then expressed in insect cells using a baculoviral expression system. Protein purification is performed by anion exchange.
# All compounds are dissolved in dimethyl sulfoxide (DMSO) to a concentration of 10 mM.
# Assay reactions are then carried out in 384-well plates, with hACC2 in an appropriate dilution and at final assay concentrations (f.c.) of 100 mM Tris (pH 7.5), 10 mM trisodium citrate, 25 mM KHCO3, 10 mM MgCl2, 0.5 mg/ml BSA, 3.75 mM reduced L-glutathione, 15 U/ml lactate dehydrogenase, 0.5 mM phosphoenolpyruvate, 15 U/ml pyruvate kinase, compounds at different concentrations at final DMSO concentrations of 1%.
# The enzymatic reaction is then started by addition of a mixture of NADH, acetyl Coenzyme A (both […].) and ATP (500 uM f.c.). The decrease of the optical density (slope S) is then determined at 25° C. at a wavelength of 340 nm over 15 minutes in a spectrophotometric reader.
# Each assay microtiter plate contains wells with vehicle instead of compound as controls for the non-inhibited enzyme (100% CTL; ‘HIGH’) and wells without acetyl-CoA as controls for non-specific NADH degradation (0% CTL; ‘LOW’).
# The slope S is used for calculation of % CTL=(S(compound)−S(‘LOW’))/(S(‘HIGH’)−S(‘LOW’))100. Compounds will give values between 100% CTL (no inhibition) and 0% CTL (complete inhibition).
# For IC50 value determination, the sample slope in the presence of the test compound after subtraction of the low controls (S(compound)−S(‘LOW’)) are used.
# An IC50 value is derived from the compound slopes at different dosages after subtraction of the low controls (S(compound)−S(‘LOW’)) by non-linear regression curve fitting (equation y=(A+((B−A)/(1+((C/x)^D))))).
# T1 sequence (O00763 129-2458 limits assumed): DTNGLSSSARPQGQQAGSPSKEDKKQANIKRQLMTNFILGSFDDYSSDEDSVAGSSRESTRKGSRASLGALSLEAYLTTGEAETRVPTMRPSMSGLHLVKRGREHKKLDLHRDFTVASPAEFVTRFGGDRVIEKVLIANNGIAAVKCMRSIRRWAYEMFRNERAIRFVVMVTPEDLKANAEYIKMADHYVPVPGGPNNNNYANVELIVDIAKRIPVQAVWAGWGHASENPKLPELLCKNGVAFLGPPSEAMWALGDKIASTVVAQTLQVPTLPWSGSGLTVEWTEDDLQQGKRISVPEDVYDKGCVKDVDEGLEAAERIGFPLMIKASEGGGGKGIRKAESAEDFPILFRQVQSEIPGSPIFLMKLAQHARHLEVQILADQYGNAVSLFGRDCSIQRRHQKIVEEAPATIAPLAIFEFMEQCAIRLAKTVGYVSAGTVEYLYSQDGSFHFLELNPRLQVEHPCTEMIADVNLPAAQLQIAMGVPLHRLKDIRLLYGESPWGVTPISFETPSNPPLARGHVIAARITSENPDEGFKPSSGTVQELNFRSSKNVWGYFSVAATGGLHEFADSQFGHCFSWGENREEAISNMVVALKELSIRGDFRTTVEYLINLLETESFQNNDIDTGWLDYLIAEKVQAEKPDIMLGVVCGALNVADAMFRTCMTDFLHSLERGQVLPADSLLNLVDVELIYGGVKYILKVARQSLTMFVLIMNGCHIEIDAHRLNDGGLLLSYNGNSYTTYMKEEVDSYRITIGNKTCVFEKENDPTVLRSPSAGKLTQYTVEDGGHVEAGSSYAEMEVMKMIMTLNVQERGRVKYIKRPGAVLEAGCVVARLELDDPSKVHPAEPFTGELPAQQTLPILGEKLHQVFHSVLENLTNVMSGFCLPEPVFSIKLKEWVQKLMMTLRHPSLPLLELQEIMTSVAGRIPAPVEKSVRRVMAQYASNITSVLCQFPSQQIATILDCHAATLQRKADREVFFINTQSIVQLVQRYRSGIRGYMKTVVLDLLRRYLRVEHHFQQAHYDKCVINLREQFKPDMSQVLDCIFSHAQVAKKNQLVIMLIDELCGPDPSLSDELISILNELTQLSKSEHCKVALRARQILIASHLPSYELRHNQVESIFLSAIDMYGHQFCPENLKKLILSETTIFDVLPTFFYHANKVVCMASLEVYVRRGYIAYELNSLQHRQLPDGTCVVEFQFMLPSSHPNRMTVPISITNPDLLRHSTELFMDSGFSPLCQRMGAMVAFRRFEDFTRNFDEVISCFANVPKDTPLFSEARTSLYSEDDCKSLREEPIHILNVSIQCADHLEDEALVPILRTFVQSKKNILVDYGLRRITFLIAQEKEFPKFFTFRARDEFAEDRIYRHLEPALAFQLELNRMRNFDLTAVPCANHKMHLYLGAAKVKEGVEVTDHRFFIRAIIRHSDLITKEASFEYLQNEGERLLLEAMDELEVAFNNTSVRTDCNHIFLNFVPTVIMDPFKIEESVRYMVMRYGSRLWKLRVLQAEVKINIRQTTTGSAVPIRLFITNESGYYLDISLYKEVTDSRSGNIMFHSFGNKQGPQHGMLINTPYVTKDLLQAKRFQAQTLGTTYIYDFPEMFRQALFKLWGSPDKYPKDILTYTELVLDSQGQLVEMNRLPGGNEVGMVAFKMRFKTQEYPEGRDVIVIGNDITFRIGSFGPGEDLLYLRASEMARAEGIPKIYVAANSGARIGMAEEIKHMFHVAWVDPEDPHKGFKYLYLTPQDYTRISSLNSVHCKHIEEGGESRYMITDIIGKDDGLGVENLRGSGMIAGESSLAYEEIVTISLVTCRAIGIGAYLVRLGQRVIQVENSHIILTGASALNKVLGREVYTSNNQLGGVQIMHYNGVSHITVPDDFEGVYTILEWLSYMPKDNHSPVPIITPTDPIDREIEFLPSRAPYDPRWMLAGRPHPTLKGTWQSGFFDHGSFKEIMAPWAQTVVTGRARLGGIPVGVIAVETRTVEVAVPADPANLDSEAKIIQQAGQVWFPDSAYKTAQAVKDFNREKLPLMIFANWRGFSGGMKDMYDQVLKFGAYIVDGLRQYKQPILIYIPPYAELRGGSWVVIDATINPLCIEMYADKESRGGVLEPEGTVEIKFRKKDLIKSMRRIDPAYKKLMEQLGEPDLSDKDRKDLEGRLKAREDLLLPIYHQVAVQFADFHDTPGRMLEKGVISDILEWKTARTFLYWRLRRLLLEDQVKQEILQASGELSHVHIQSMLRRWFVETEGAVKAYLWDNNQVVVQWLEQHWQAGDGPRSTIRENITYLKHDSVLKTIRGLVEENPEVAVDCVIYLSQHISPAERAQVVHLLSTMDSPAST
row,IC50 [µM],SMILES
1,0.59,CCOc1ccc(OC2CN(c3ccc([C@H](C)NC(=O)CC#N)cc3)C2)cc1 [Example 1.83]
2,6.43,CCOc1ccc(OC2CN(c3ccc([C@H](C)NC(=O)C(C)(C)OC)cc3)C2)cc1 [Example 1.40]
3,1.7,CCOc1ccc(OC2CN(c3ccc([C@H](C)NC(=O)c4occc4C)cc3)C2)cc1 [Example 1.42]
4,1.27,C[C@H](NC(=O)C1CC1)c1ccc(N2CC(Oc3ccc(OC(C)(C)C)cc3)C2)cc1 [Example 10.22]
5,0.29,CCOc1ccc(OC2CN(c3ccc([C@H](C)NC(=O)c4ccno4)cc3)C2)cc1 [Example 2.4]
6,2.42,"CCOc1ccc(OC2CN(c3ccc([C@H](C)NC(=O)C4CC4)cc3)C2)c(F)c1 [Example 7.2, (S)-Cyclopropanecarboxylic acid (1-{4-[3-(4-ethoxy-2-fluoro-phenoxy)-azetidin-1-yl]-phenyl}-ethyl)-amide]"
7,0.07,CCOc1ccc(OC2CN(c3ccc([C@H](C)NC(=O)C4CC=CC4)cc3)C2)cc1 [Example 1.51]
8,3.9,CCOc1ccc(OC2CN(c3ccc([C@H](C)NC(=O)c4cnc(NC)nc4)cc3)C2)cc1 [Example 1.58]
9,0.81,"CC(=O)N[C@@H](C)c1ccc(N2CC(Oc3ccc(C(F)(F)F)cn3)C2)cc1 [Example 8.8, (S)—N-(1-{4-[3-(5-Trifluoromethyl-pyridin-2-yloxy)-azetidin-1-yl]-phenyl}-ethyl)-acetamide]"
10,0.23,CCOc1ccc(OC2CN(c3ccc([C@H](C)NC(=O)C4(C)CC4)cc3)C2)cc1 [Example 1.12]
11,0.41,CCOc1ccc(OC2CN(c3ccc([C@H](C)NC(=O)C4(C(F)(F)F)CC4)cc3)C2)cc1 [Example 1.74]
12,0.35,"CC(=O)N[C@@H](C)c1ccc(N2CC(Oc3ccnc(N4CCOCC4)n3)C2)cc1 [Example 13.1, (S)—N-(1-{4-[3-(2-Morpholin-4-yl-pyrimidin-4-yloxy)-azetidin-1-yl]-phenyl}-ethyl)-acetamide]"
13,1.06,CCOc1ccc(OC2CN(c3ccc([C@H](C)NC(=O)c4nc(C)sc4C)cc3)C2)cc1 [Example 1.50]
14,0.25,"CCOc1ccc(OC2CN(c3ccc([C@H](C)NC(=O)N(C)C)cc3)C2)c(F)c1 [Example 8.1, (S)-3-(1-{4-[3-(4-Ethoxy-2-fluoro-phenoxy)-azetidin-1-yl]-phenyl}-ethyl)-1,1-dimethyl-urea]"
15,1.53,"CCOc1ccc(OC2CN(c3ccc([C@H](C)NC(=O)c4cc(C)oc4C)cc3)C2)cc1 [Example 2.1, (S)-2,5-Dimethyl-furan-3-carboxylic acid (1-{4-[3-(4-ethoxy-phenoxy)-azetidin-1-yl]-phenyl}-ethyl)-amide]"
16,0.26,"CC(=O)N[C@@H](C)c1ccc(N2CC(Oc3ccc(C(C)(C)C)cc3)C2)cc1 [Example 6.1, (S)—N-(1-{4-[3-(4-tert-Butyl-phenoxy)-azetidin-1-yl]-phenyl}-ethyl)-acetamide]"
17,0.97,CCOc1ccc(OC2CN(c3ccc([C@H](C)NC(=O)Cc4cccnc4)cc3)C2)cc1 [Example 1.52]
18,0.04,CC(=O)N[C@@H](C)c1ccc(N2CC(Oc3ccc(OCC4CC4(F)F)cc3)C2)cc1 (stereo partly drawn) [Example 9.5]
19,0.91,CC(=O)N[C@@H](C)c1ccc(N2CC(Oc3ccc(-n4cccc4)cc3Cl)C2)cc1 [Example 10.3]
20,2.56,CCOc1ccc(OC2CN(c3ccc([C@H](C)NC(=O)CC4CC4)cc3)C2)cc1 [Example 1.15]
21,0.81,"CC(=O)N[C@@H](C)c1ccc(N2CC(Oc3cccc(N(C)CC(C)(C)O)n3)C2)cc1 [Example 12.1, (S)—N-{1-[4-(3-{6-[(2-Hydroxy-2-methyl-propyl)-methyl-amino]-pyridin-2-yloxy}-azetidin-1-yl)-phenyl]ethyl}-acetamide]"
22,3.35,CCOc1ccc(OC2CN(c3ccc([C@H](C)NC(=O)c4ccc5c(c4)nnn5C)cc3)C2)cc1 [Example 1.48]
23,0.48,CCOc1ccc(OC2CN(c3ccc([C@H](C)NC(=O)c4cnn(C)c4)cc3)C2)cc1 [Example 1.21]
24,0.8,CCCCC(=O)N[C@@H](C)c1ccc(N2CC(Oc3ccc(OCC)cc3)C2)cc1 [Example 1.65]
25,1.04,CCOc1ccc(OC2CN(c3ccc([C@H](C)NC(=O)COC)cc3)C2)cc1 [Example 1.3]
26,1.75,CC(=O)N[C@@H](C)c1ccc(N2CC(Oc3cccc(OC4CCOC4)n3)C2)cc1 (stereo partly drawn) [Example 12.8]
27,0.53,CC(=O)N[C@@H](C)c1ccc(N2CC(Oc3cccc(C)n3)C2)cc1 [Example 12.5]

row,IC50 [µM],SMILES
1,1.75,CCOc1ccc(OC2CN(c3ccc([C@H](C)NC(=O)c4cc(C)nn4C)cc3)C2)cc1 [Example 1.31]
2,0.23,CC(=O)N[C@@H](C)c1ccc(N2CC(Oc3cccc(C(C)C)n3)C2)cc1 [Example 12.19]
3,0.49,CC(=O)N[C@@H](C)c1ccc(N2CC(Oc3cccc(OC(C)C)n3)C2)cc1 [Example 12.9]
4,2.19,CCOc1ccc(OC2CN(c3ccc([C@H](C)NC(=O)c4ccc(C)nc4)cc3)C2)cc1 [Example 1.64]
5,0.34,"CCOc1ccc(OC2CN(c3ccc([C@H](C)NC4=CC(=O)OC4)cc3)C2)cc1 [Example 5.1, (S)-4-(1-{4-[3-(4-Ethoxy-phenoxy)-azetidin-1-yl]-phenyl}-ethylamino)-5H-furan-2-one]"
6,3.45,CCOc1ccc(OC2CN(c3ccc([C@H](C)NC(=O)N(C)C4CC4)cc3)C2)cc1 [Example 4.14]
7,0.13,CCOc1cc(F)c(OC2CN(c3ccc([C@H](C)NC(=O)C4CC4)cc3)C2)c(F)c1 [Example 10.23]
8,1.37,"C[C@H](NC(=O)OC(C)(C)C)c1ccc(N2CC(Oc3ccc(OCC4CC4)cc3)C2)cc1 [Example 8.3, (S)-(1-{4-[3-(4-Cyclopropylmethoxy-phenoxy)-azetidin-1-yl]-phenyl}-ethyl)-carbamic acid tert-butyl ester]"
9,0.71,CCOc1ccc(OC2CN(c3ccc([C@H](C)NC(=O)C(C)CC)cc3)C2)cc1 (stereo partly drawn) [Example 1.71]
10,0.14,"CC(=O)N[C@@H](C)c1ccc(N2CC(Oc3ccc(OCc4ccccc4)cc3)C2)cc1 [Example 8.5, (S)—N-(1-{4-[3-(4-Benzyloxy-phenoxy)-azetidin-1-yl]-phenyl}-ethyl)-acetamide]"
11,0.74,COc1ccc(OC2CN(c3ccc([C@H](C)NC(C)=O)cc3)C2)cn1 [Example 10.8]
12,2.59,"CCOc1ccc(OC2CN(c3ccc([C@H](C)NC(=O)C4(C)CCC4)cc3)C2)cc1 [Example 1.1, (S)-1-Methyl-cyclobutanecarboxylic acid (1-{4-[3-(4-ethoxy-phenoxy)-azetidin-1-yl]-phenyl}-ethyl)-amide]"
13,0.83,CC(=O)N[C@@H](C)c1ccc(N2CC(Oc3cccc(N4CCOCC4)n3)C2)cc1 [Example 12.15]
14,0.12,CCC(C)c1ccc(OC2CN(c3ccc([C@H](C)NC(C)=O)cc3)C2)cc1 (stereo partly drawn) [Example 10.10]
15,2.01,CCOc1ccc(OC2CN(c3ccc([C@H](C)NC(=O)c4cc(=O)[nH]cn4)cc3)C2)cc1 [Example 1.45]
16,0.73,COc1ccc(OC2CN(c3ccc([C@H](C)NC(C)=O)cc3)C2)cn1 [Example 10.32]
17,0.95,CC(=O)N[C@@H](C)c1ccc(N2CC(Oc3ccccc3C)C2)cc1 [Example 10.15]
18,0.44,CCOc1ccc(OC2CN(c3ccc([C@H](C)NC(=O)CCCNC(C)=O)cc3)C2)cc1 [Example 1.55]
19,0.07,CCOc1ccc(OC2CN(c3ccc([C@H](C)NC(=O)c4conc4C)cc3)C2)cc1 [Example 1.14]
20,4.4,C[C@H](NC(=O)C1CC1)c1ccc(N2CC(Oc3ccc(OC(F)(F)F)cc3)C2)cc1 [Example 10.20]
21,2.5,CCOCC(=O)N[C@@H](C)c1ccc(N2CC(Oc3ccc(OCC)cc3)C2)cc1 [Example 1.62]
22,0.74,CCOc1ccc(OC2CN(c3ccc([C@H](C)NC(=O)c4c(C)noc4N)cc3)C2)cc1 [Example 1.30]
23,1.33,CCOc1ccc(OC2CN(c3ccc([C@H](C)NC(=O)Cc4c[nH]cn4)cc3)C2)cc1 [Example 1.47]
24,3.19,CCOc1ccc(OC2CN(c3ccc([C@H](C)NC(=O)C4(O)CC4)cc3)C2)cc1 [Example 1.10]
25,0.04,CC(=O)N[C@@H](C)c1ccc(N2CC(Oc3ccc(OC4CCC4)cc3)C2)cc1 [Example 9.4]
26,0.22,CC(=O)N[C@@H](C)c1ccc(N2CC(Oc3cccc(N4CCC(C)CC4)n3)C2)cc1 [Example 12.4]

# Same assay, conditions: IC50, ACC2 assay; human ACC2 construct lacking 128 N-terminal amino acids; 25° C., 340 nm, 15 minutes
row,SMILES,IC50 [µM]
1,CCOc1ccc(OC2CN(c3ccc([C@H](C)NC(=O)CF)cc3)C2)cc1 [Example 1.16],0.11
